The results in this text go back to patent US8629093B2, “Detergent composition comprising mixture of chelants” (The Procter & Gamble Company, priority 2010, dated 2014).

The nature of series [1]: Stain removal on wine stains (MiniWasher, image analysis). The conditions noted are these: wash 32.2° C., 6 gpg hardness, 12 minutes. As for the experimental part: (§1) The performance of the chelants were measured on wine and tea. Wine and tea stains were applied to cotton and obtained from EMC (US). Stains and ballast load consisting of 0.5 kg of T-shirt was added to a MiniWasher representing a medium US wash conditions. The wash water was set at 32.2° C.±1° C. and 6 gpg (1 mmol/L) hardness and the rinse water was set at 15.5° C.±1° C. The water volume was 15 liters and wash time 12 minutes.
(§2) The stains and the ballast were dried at the end of each cycle under high speed and high heat with cool down cycle. The results were then analyzed by image analysis which is a method that enables to calculate the amount of stain that is removed. Stains are imaged before washing and after washing. The imaging calculates the amount of stain removal index (SRI). SRI of 100 means complete removal and SRI of zero is no removal.
(§3) The Laundry Image Analysis system (Merlin image analysis system) measures stain removal on technical stain swatches. The system utilizes a video camera to acquire color images of swatches. An image of the swatch is taken before and after it is washed. The acquired image is then analyzed by computer software (Global R&D computing). The software compares the unwashed stain to the washed stain, as well as the unwashed fabric to the washed fabric and produces five figures of merit which describe stain removal. The data are then analyzed statistically to determine statistically significant differences between the detergent performances.
(§4) The stain removal index uses the initial fabric as the reference against which to measure color differences between unwashed and washed stains. A higher value indicates a better cleaning and stain removal thus a better detergent. The standard deviation is 1.

Series [2] in a line: Cleaning efficacy of compact liquid detergent composition. The conditions noted are these: composition comprising 0.7% of Na-DTPA.
Series [3] is described as follows: Stain removal on tea stains (MiniWasher, image analysis). The note with it: wash 32.2° C., 6 gpg hardness, 12 minutes. As for the experimental part: as §1, §2, §3, §4
Series [4] in a line: Product stability on storage, assessed visually. Format: physicochemical. Here is the method:
Products (I through III) were prepared by combining Composition C and the 3 different chelant combinations. The products (75 g) were stored for 4 weeks at 4° C., 20° C. and 35° C. in a Glass Jar (100 mL contenance). The product stability was then assessed visually. If there is a visual precipitate or a product phase split, the stability is considered Fail. Stability is considered Pass if there is no signs of changes during the storage period.

The mark [5] stands for this setting: chelant 1 ppm, SRI 100 = complete removal, standard deviation 1.

On to `O=C([O-])CN(CCN(CC(=O)[O-])CC(=O)[O-])CCN(CC(=O)[O-])CC(=O)[O-].[Na+].[Na+].[Na+].[Na+].[Na+]` [Na-DTPA, sodium salt of diethylene triamine pentaacetate], for which the entries for the “Stain Removal Index Wine” value in series [1] (setting [5]), in series [1] (chelant 2 ppm) and in series [1] (chelant 3 ppm) were 55.2, 55.8 and 56.4, respectively. Also, the Cleaning efficacy entry in series [2] was “does not provide desired cleaning efficacy”. Besides, the “Stain Removal Index Tea” value in series [3] (setting [5]) was found to be 27.6; in series [3] (chelant 2 ppm), 29.0; in series [3] (chelant 3 ppm), 27.1. Besides, the “Stability of compact liquid detergent composition” value in series [4] (composition comprising 0.7% of Na-DTPA) is “stable”; in series [4] (quantity of Na-DTPA increased to the effective level) it was “does not meet the stability requirements”.
On to `O=C([O-])CC(NCCNC(CC(=O)O)C(=O)[O-])C(=O)[O-].[Na+].[Na+].[Na+]` (stereo not drawn) [Na-EDDS, sodium salt of Ethylenediamine-N,N′-disuccinic acid], for which the “Stain Removal Index Wine” value was found to be 58.3 in series [1] (setting [5]), 59.0 in series [1] (chelant 2 ppm) and 56.8 in series [1] (chelant 3 ppm). In addition, the “Stain Removal Index Tea” value in series [3] (setting [5]) is reported as 28.2; in series [3] (chelant 2 ppm), 29.3; in series [3] (chelant 3 ppm), 26.1.
